Reference: ChEMBL document CHEMBL4118132, “Novel 5-methyl-2-phenylphenanthridium derivatives as FtsZ-targeting antibacterial agents from structural simplification of natural product sanguinarine” (2018)
Converted amounts (≈) assume the structure as drawn. The source made the active and inactive calls. The calls are words filed in the database; no cut-off is given here.

Experiments:
Streptococcus pyogenes [1] = test: Antibacterial activity against penicillin-resistant Streptococcus pyogenes after 24 hrs by broth microdilution method; format: functional
Staphylococcus aureus [2] = test: Antibacterial activity against penicillin-susceptible Staphylococcus aureus ATCC 25923 after 24 hrs by broth microdilution method; format: functional; conditions: ATCC 25923, 24 h
Streptococcus pyogenes [3] = test: Antibacterial activity against penicillin-susceptible Streptococcus pyogenes after 24 hrs by broth microdilution method; format: functional
Bacillus subtilis = test: Antibacterial activity against penicillin-susceptible Bacillus subtilis ATCC 9372 after 24 hrs by broth microdilution method; format: functional; conditions: ATCC 9372, 24 h
Bacillus pumilus = test: Antibacterial activity against penicillin-susceptible Bacillus pumilus ATCC 63202 after 24 hrs by broth microdilution method; format: functional; conditions: ATCC 63202, 24 h
[4] = target: T1, Cell division protein FtsZ (Bacillus subtilis) (UniProt A5Z1V5); test: Inhibition of penicillin-susceptible Bacillus subtilis ATCC 9372 N-terminal His6-tagged FtsZ expressed in Escherichia coli BL21 (DE3) cells at 10 ug/ml by fluorescence spectrophotometer-based light scattering assay
T1 sequence (whole entry): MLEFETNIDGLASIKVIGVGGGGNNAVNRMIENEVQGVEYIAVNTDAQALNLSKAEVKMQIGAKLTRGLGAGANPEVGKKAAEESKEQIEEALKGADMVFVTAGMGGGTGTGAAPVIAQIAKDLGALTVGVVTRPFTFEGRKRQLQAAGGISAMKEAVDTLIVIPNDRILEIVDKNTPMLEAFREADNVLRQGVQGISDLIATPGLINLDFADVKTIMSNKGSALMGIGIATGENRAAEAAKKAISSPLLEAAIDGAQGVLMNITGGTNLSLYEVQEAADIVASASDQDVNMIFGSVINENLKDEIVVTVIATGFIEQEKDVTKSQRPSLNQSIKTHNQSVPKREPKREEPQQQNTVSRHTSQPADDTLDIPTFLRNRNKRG

Staphylococcus aureus [5] = test: Potency index, ratio of oxacillin sodium MIC to test compound MIC for penicillin-resistant Staphylococcus aureus clinical isolate; format: functional
Streptococcus pyogenes [6] = test: Potency index, ratio of ciprofloxacin MIC to test compound MIC for penicillin-susceptible Streptococcus pyogenes; format: functional
Staphylococcus aureus [7] = test: Bactericidal activity against penicillin-susceptible Staphylococcus aureus ATCC 25923 after 24 hrs by flat colony counting method; format: functional; conditions: ATCC 25923, 24 h
[8] = system: Staphylococcus epidermidis; test: Potency index, ratio of ciprofloxacin MIC to test compound MIC for penicillin-resistant Staphylococcus epidermidis clinical isolate; format: functional
Streptococcus pyogenes [9] = test: Potency index, ratio of oxacillin sodium MIC to test compound MIC for penicillin-resistant Streptococcus pyogenes; format: functional
Streptococcus pyogenes [10] = test: Potency index, ratio of oxacillin sodium MIC to test compound MIC for penicillin-susceptible Streptococcus pyogenes; format: functional
Staphylococcus aureus [11] = test: Antibacterial activity against penicillin-resistant Staphylococcus aureus clinical isolate after 24 hrs by broth microdilution method; format: functional
Staphylococcus aureus [12] = test: Antibacterial activity against methicillin-resistant Staphylococcus aureus ATCC 43300 after 24 hrs by broth microdilution method; format: functional; conditions: ATCC 43300, 24 h
Staphylococcus aureus [13] = test: Potency index, ratio of ciprofloxacin MIC to test compound MIC for methicillin-resistant Staphylococcus aureus ATCC 43300; format: functional
Staphylococcus aureus [14] = test: Potency index, ratio of oxacillin sodium MIC to test compound MIC for methicillin-resistant Staphylococcus aureus ATCC 43300; format: functional
[15] = system: Staphylococcus epidermidis; test: Antibacterial activity against penicillin-resistant Staphylococcus epidermidis clinical isolate after 24 hrs by broth microdilution method; format: functional
Pseudomonas aeruginosa = test: Antibacterial activity against penicillin-susceptible Pseudomonas aeruginosa ATCC 27853 after 24 hrs by broth microdilution method; format: functional; conditions: ATCC 27853, 24 h
Streptococcus pyogenes [16] = test: Potency index, ratio of ciprofloxacin MIC to test compound MIC for penicillin-resistant Streptococcus pyogenes; format: functional
[17] = system: Staphylococcus epidermidis; test: Potency index, ratio of oxacillin sodium MIC to test compound MIC for penicillin-resistant Staphylococcus epidermidis clinical isolate; format: functional
Staphylococcus aureus [18] = test: Potency index, ratio of ciprofloxacin MIC to test compound MIC for penicillin-resistant Staphylococcus aureus clinical isolate; format: functional
Staphylococcus aureus [19] = test: Potency index, ratio of oxacillin sodium MIC to test compound MIC for penicillin-susceptible Staphylococcus aureus ATCC 25923; format: functional
Escherichia coli = test: Antibacterial activity against penicillin-susceptible Escherichia coli ATCC 25922 after 24 hrs by broth microdilution method; format: functional; conditions: ATCC 25922, 24 h
[20] = target: T1, Cell division protein FtsZ (Bacillus subtilis); test: Inhibition of penicillin-susceptible Bacillus subtilis ATCC 9372 N-terminal His6-tagged FtsZ expressed in Escherichia coli BL21 (DE3) cells by fluorescence spectrophotometer-based light scattering assay
Staphylococcus aureus [21] = test: Potency index, ratio of ciprofloxacin MIC to test compound MIC for penicillin-susceptible Staphylococcus aureus ATCC 25923; format: functional
[22] = target: T2, Cell division protein FtsZ (Staphylococcus aureus) (UniProt P0A031); test: Inhibition of FtsZ in penicillin-susceptible Staphylococcus aureus ATCC 25923 assessed as increase in length of bacteria at 4 ug/ml after 5 hrs by phase-contrast light microscopic method
T2 sequence (whole entry): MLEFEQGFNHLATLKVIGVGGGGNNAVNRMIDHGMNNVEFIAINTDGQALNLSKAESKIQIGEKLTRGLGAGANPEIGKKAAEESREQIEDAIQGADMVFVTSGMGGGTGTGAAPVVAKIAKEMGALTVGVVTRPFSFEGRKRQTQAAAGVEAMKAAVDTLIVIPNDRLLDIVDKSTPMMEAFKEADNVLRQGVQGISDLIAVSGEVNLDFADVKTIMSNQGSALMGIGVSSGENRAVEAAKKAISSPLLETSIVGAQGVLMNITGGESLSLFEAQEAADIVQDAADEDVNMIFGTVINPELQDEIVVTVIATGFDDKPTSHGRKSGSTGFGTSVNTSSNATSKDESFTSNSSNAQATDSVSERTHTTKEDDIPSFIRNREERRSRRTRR

[23] = target: T1, Cell division protein FtsZ (Bacillus subtilis); test: Inhibition of FtsZ in penicillin-susceptible Bacillus subtilis ATCC 9372 assessed as increase in length of bacteria at 8 ug/ml after 5 hrs by phase-contrast light microscopic method

O=C(O)c1cn(C2CC2)c2cc(N3CCNCC3)c(F)cc2c1=O [CIPROFLOXACIN]
MIC (Streptococcus pyogenes [1]): > 64 µg/mL
MIC (Staphylococcus aureus [2]): 8 µg/mL (≈ 24.1 µM)
MIC (Streptococcus pyogenes [3]): 8 µg/mL (≈ 24.1 µM)
MIC (Bacillus subtilis): 2 µg/mL (≈ 6.04 µM)
MIC (Bacillus pumilus): 8 µg/mL (≈ 24.1 µM)
inhibition [4]: Active

Cc1cc(-c2ccc(-c3ccccc3)cc2)cc2c3ccccc3c[n+](C)c12.[Cl-]
Ratio (Staphylococcus aureus [5]): 256
Ratio (Streptococcus pyogenes [6]): 8
MBC (Staphylococcus aureus [7]): 64 µg/mL
MIC (Streptococcus pyogenes [1]): 2 µg/mL
Ratio [8]: 512
Ratio (Streptococcus pyogenes [9]): 32
MIC (Staphylococcus aureus [2]): 0.06 µg/mL
Ratio (Streptococcus pyogenes [10]): 1
MIC (Staphylococcus aureus [11]): 0.25 µg/mL
MIC (Staphylococcus aureus [12]): 0.5 µg/mL
MIC (Streptococcus pyogenes [3]): 1 µg/mL
Ratio (Staphylococcus aureus [13]): 4 - 164
Ratio (Staphylococcus aureus [14]): 16 - 256
MIC [15]: 0.125 µg/mL
MIC (Bacillus subtilis): 0.125 µg/mL
MIC (Bacillus pumilus): 0.125 µg/mL
MIC (Pseudomonas aeruginosa): > 64 µg/mL
Ratio (Streptococcus pyogenes [16]): 32
Ratio [17]: 512
Ratio (Staphylococcus aureus [18]): 64
Ratio (Staphylococcus aureus [19]): 67
MIC (Escherichia coli): > 64 µg/mL
inhibition [20]: Dose-dependent effect
Ratio (Staphylococcus aureus [21]): 133

Cc1ccc(-c2cc(C)c3c(c2)c2ccccc2c[n+]3C)cc1.[Cl-]
Ratio (Staphylococcus aureus [5]): 16 - 256
MBC (Staphylococcus aureus [7]): 32 µg/mL
MIC (Streptococcus pyogenes [1]): 4 µg/mL
MIC (Staphylococcus aureus [2]): 0.5 µg/mL
MIC (Staphylococcus aureus [11]): 1 µg/mL
MIC (Staphylococcus aureus [12]): 2 µg/mL
MIC (Streptococcus pyogenes [3]): 4 µg/mL
Ratio (Staphylococcus aureus [13]): 4 - 164
Ratio (Staphylococcus aureus [14]): 16 - 256
MIC [15]: 2 µg/mL
MIC (Bacillus subtilis): 0.5 µg/mL
MIC (Bacillus pumilus): 2 µg/mL
MIC (Pseudomonas aeruginosa): > 64 µg/mL
Ratio (Staphylococcus aureus [18]): 4 - 64
Ratio (Staphylococcus aureus [19]): 4 - 67
MIC (Escherichia coli): > 64 µg/mL
Ratio (Staphylococcus aureus [21]): 8 - 133

Cc1cc(-c2ccccc2)cc2c3ccccc3c[n+](C)c12.[Cl-]
Ratio (Staphylococcus aureus [5]): 16 - 256
MBC (Staphylococcus aureus [7]): 32 µg/mL
MIC (Streptococcus pyogenes [1]): 2 µg/mL
MIC (Staphylococcus aureus [2]): 1 µg/mL
MIC (Staphylococcus aureus [11]): 2 µg/mL
MIC (Staphylococcus aureus [12]): 2 µg/mL
MIC (Streptococcus pyogenes [3]): 2 µg/mL
Ratio (Staphylococcus aureus [13]): 4 - 164
Ratio (Staphylococcus aureus [14]): 16 - 256
MIC [15]: 4 µg/mL
MIC (Bacillus subtilis): 1 µg/mL
MIC (Bacillus pumilus): 4 µg/mL
MIC (Pseudomonas aeruginosa): > 64 µg/mL
Ratio (Staphylococcus aureus [18]): 4 - 64
Ratio (Staphylococcus aureus [19]): 4 - 67
MIC (Escherichia coli): > 64 µg/mL
Ratio (Staphylococcus aureus [21]): 8 - 133

Cc1cc(-c2cccc(C(F)(F)F)c2)cc2c3ccccc3c[n+](C)c12.[Cl-]
Ratio (Staphylococcus aureus [5]): 16 - 256
MBC (Staphylococcus aureus [7]): 16 µg/mL
MIC (Streptococcus pyogenes [1]): 2 µg/mL
MIC (Staphylococcus aureus [2]): 0.25 µg/mL
MIC (Staphylococcus aureus [11]): 0.5 µg/mL
MIC (Staphylococcus aureus [12]): 1 µg/mL
MIC (Streptococcus pyogenes [3]): 1 µg/mL
Ratio (Staphylococcus aureus [13]): 4 - 164
Ratio (Staphylococcus aureus [14]): 16 - 256
MIC [15]: 0.25 µg/mL
MIC (Bacillus subtilis): 0.25 µg/mL
MIC (Bacillus pumilus): 0.5 µg/mL
MIC (Pseudomonas aeruginosa): > 64 µg/mL
Ratio (Staphylococcus aureus [18]): 4 - 64
Ratio (Staphylococcus aureus [19]): 4 - 67
MIC (Escherichia coli): > 64 µg/mL
Ratio (Staphylococcus aureus [21]): 8 - 133

Cc1cc(-c2ccc(OC(F)(F)F)cc2)cc2c3ccccc3c[n+](C)c12.[Cl-]
Ratio (Staphylococcus aureus [5]): 16 - 256
MBC (Staphylococcus aureus [7]): 16 µg/mL
MIC (Streptococcus pyogenes [1]): 4 µg/mL
MIC (Staphylococcus aureus [2]): 0.06 µg/mL
MIC (Staphylococcus aureus [11]): 1 µg/mL
MIC (Staphylococcus aureus [12]): 0.25 µg/mL
MIC (Streptococcus pyogenes [3]): 2 µg/mL
Ratio (Staphylococcus aureus [13]): 64
Ratio (Staphylococcus aureus [14]): 256
MIC [15]: 0.25 µg/mL
MIC (Bacillus subtilis): 0.125 µg/mL
MIC (Bacillus pumilus): 0.125 µg/mL
MIC (Pseudomonas aeruginosa): > 64 µg/mL
Ratio (Staphylococcus aureus [18]): 4 - 64
Ratio (Staphylococcus aureus [19]): 67
MIC (Escherichia coli): > 64 µg/mL
Ratio (Staphylococcus aureus [21]): 133

Cc1cc(-c2ccccc2C(F)(F)F)cc2c3ccccc3c[n+](C)c12.[Cl-]
Ratio (Staphylococcus aureus [5]): 16 - 256
MBC (Staphylococcus aureus [7]): 32 µg/mL
MIC (Streptococcus pyogenes [1]): 2 µg/mL
MIC (Staphylococcus aureus [2]): 0.5 µg/mL
MIC (Staphylococcus aureus [11]): 1 µg/mL
MIC (Staphylococcus aureus [12]): 1 µg/mL
MIC (Streptococcus pyogenes [3]): 2 µg/mL
Ratio (Staphylococcus aureus [13]): 4 - 164
Ratio (Staphylococcus aureus [14]): 16 - 256
MIC [15]: 0.5 µg/mL
MIC (Bacillus subtilis): 0.5 µg/mL
MIC (Bacillus pumilus): 2 µg/mL
MIC (Pseudomonas aeruginosa): > 64 µg/mL
Ratio (Staphylococcus aureus [18]): 4 - 64
Ratio (Staphylococcus aureus [19]): 4 - 67
MIC (Escherichia coli): > 64 µg/mL
Ratio (Staphylococcus aureus [21]): 8 - 133

COc1ccc(-c2cc(C)c3c(c2)c2ccccc2c[n+]3C)cc1.[Cl-]
Ratio (Staphylococcus aureus [5]): 16 - 256
MBC (Staphylococcus aureus [7]): > 64 µg/mL
MIC (Streptococcus pyogenes [1]): 8 µg/mL
MIC (Staphylococcus aureus [2]): 0.5 µg/mL
MIC (Staphylococcus aureus [11]): 4 µg/mL
MIC (Staphylococcus aureus [12]): 4 µg/mL
MIC (Streptococcus pyogenes [3]): 8 µg/mL
Ratio (Staphylococcus aureus [13]): 4 - 164
Ratio (Staphylococcus aureus [14]): 16 - 256
MIC [15]: 2 µg/mL
MIC (Bacillus subtilis): 2 µg/mL
MIC (Bacillus pumilus): 4 µg/mL
MIC (Pseudomonas aeruginosa): > 64 µg/mL
Ratio (Staphylococcus aureus [18]): 4 - 64
Ratio (Staphylococcus aureus [19]): 4 - 67
MIC (Escherichia coli): > 64 µg/mL
Ratio (Staphylococcus aureus [21]): 8 - 133

C[n+]1cc2c3c(ccc2c2ccc4cc5c(cc4c21)OCO5)OCO3.[Cl-] [SANGUINARIUM CHLORIDE]
inhibition [22]: Active
MIC (Streptococcus pyogenes [1]): 4 µg/mL
inhibition [23]: Active
MIC (Staphylococcus aureus [2]): 8 µg/mL
MIC (Staphylococcus aureus [11]): 4 µg/mL
MIC (Staphylococcus aureus [12]): 8 µg/mL
MIC (Streptococcus pyogenes [3]): 4 µg/mL
MIC [15]: 8 µg/mL
MIC (Bacillus subtilis): 4 µg/mL
MIC (Bacillus pumilus): 4 µg/mL
MIC (Pseudomonas aeruginosa): > 64 µg/mL
MIC (Escherichia coli): > 64 µg/mL
